# According to patent US20230119013A1, “N-CYANOPYRROLIDINES WITH ACTIVITY AS USP30 INHIBITORS” (MISSION THERAPEUTICS LIMITED, priority 2020, published 2023):
# Where two headings read alike, the source gives them in different places.
# Experiments:
# [1] = system: cathepsins B, K, L, S and V; test: Cathepsin IC50, summary over B, K, L, S, V; format: biochemical; details: K, L
# [2] = system: T1, cathepsins B, K, L, S and V; test: Cathepsin IC50, summary over B, K, L, S, V; format: biochemical; details: range over the five cathepsins
# T1 construct: Cathepsin IC50 (μM) B, K, L, S, V; other: range over the five cathepsins
# [3] = system: USP2, USP10, USP16, USP21, USP22, USP25, USP28; test: DUB IC50, seven DUBs; format: biochemical; details: for DUB selectivity preference for USP30 v 7 DUBs: range over the seven DUBs
# [4] = system: T2, USP2, USP10, USP16, USP21, USP22, USP25, USP28; test: DUB IC50, seven DUBs; format: biochemical; details: range over the seven DUBs
# T2 construct: DUB IC50 (μM) USP2, USP10, USP16, USP21, USP22, USP25, USP28; other: range over the seven DUBs
# UCHL1 = target: T3, UCHL1 (Homo sapiens, UniProt P09936); test: DUB IC50 UCHL1; format: biochemical
# T3 sequence (P09936 1-223): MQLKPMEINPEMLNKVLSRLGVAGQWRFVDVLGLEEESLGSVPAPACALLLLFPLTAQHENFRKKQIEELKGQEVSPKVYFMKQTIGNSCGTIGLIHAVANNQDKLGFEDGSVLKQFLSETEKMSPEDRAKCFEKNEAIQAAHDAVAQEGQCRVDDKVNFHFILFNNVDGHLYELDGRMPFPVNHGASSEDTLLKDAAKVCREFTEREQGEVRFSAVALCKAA
# USP30 = target: T4, USP30 (Homo sapiens, UniProt Q70CQ3); test: USP30 biochemical IC50 assay (fluorescence polarisation)
# T4 construct: purchased Boston Biochem E582
# T4 sequence (Q70CQ3 57-517 limits assumed): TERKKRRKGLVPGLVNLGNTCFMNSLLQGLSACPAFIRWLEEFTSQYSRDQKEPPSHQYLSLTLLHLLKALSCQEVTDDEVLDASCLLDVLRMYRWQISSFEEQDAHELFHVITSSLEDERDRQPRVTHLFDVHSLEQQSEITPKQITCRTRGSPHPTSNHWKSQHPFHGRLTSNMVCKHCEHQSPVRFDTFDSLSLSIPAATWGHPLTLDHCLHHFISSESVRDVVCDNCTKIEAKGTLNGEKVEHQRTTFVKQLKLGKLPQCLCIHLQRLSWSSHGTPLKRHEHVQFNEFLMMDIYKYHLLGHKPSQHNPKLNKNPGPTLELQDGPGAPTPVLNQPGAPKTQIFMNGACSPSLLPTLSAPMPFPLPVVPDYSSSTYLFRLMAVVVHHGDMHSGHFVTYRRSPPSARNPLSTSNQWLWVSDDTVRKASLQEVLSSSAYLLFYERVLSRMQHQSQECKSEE
# Procedure: Dilution plates were prepared at 21 times the final concentration (2100 μM for a final concentration of 100 μM) in 50% DMSO in a 96-well polypropylene V-bottom plate (Greiner #651201). A typical 8-point dilution series would be 100, 30, 10, 3, 1, 0.3, 0.1, 0.03 μM final. Reactions were performed in duplicate in black 384 well plates (small volume, Greiner 784076) in a final reaction volume of 21 μl. Either 1 μl of 50% DMSO or diluted compound was added to the plate. USP30 (Boston Biochem #E582) was diluted in reaction buffer (40 mM Tris, pH 7.5, 0.005% Tween 20, 0.5 mg/ml BSA, 5 mM beta-mercaptoethanol) to achieve a final assay concentration of 4 nM, and 10 μl of diluted USP30 was added to the compound. Enzyme and compound were incubated for 30 min at room temp. Reactions were initiated by the addition of 50 nM of TAMRA labelled peptide linked to ubiquitin via an iso-peptide bond as fluorescence polarisation substrate. Reactions were read immediately after addition of substrate and following a 2-hour incubation at room temperature. Readings were performed on a Pherastar Plus (BMG Labtech). λ Excitation 540 nm; Emission 590 nm.
# TOM20 ubiquitylation = test: TOM20-ubiquitylation assay; format: cell-based, human; details: antimycin A/oligomycin mitophagy trigger
# Text: Human cell lines can be challenged with mitochondrial depolarizing agents (ionophores (eg. CCCP, valinomycin), mitochondrial complex inhibitors (oligomycin, antimycin A)) to induce ubiquitylation of TOM20, which is then further promoted in the presence of USP30 inhibitors. TOM20 ubiquitylation is subsequently assessed through western blotting of the cell lysates, with TOM20 ubiquitylation adduct detection possible due to an 8 kDa molecule weight increase for each molecule of ubiquitin added, resulting in laddering of a TOM20 immunoreactive band. TOM20-ubiquitylation levels can be quantified using chemiluminescence densitometry of laddered immunoreactive bands.
# [5] = Plasma free fraction by equilibrium dialysis; format: in vitro ADME; details: mouse plasma; read-out: Binding Mouse Plasma fu, p
# Text: (§1) log P: partition coefficient; lipophilicity measurement. log D: distribution co-efficient; lipophilicity measurement. TPSA: topological polar surface area. Turbidimetric solubility: Test compound solution prepared in DMSO diluted into aqueous buffer. Turbidimetry is used as the end-point by measuring absorbance at 620 nm. FaSSIF: simulated intestinal fluid in fasted state measured at pH 6.5. Hep Cl mouse: in vitro hepatocyte clearance in mouse cells. Hep Cl human: in vitro hepatocyte clearance in human cells. Plasma fu,p: The free fraction of a compound in plasma preparation determined by in vitro equilibrium dialysis. It is understood that only unbound (free) compound is capable of engaging with the target. Brain fu,br: The free fraction of a compound in brain homogenate preparation determined by in vitro equilibrium dialysis. It is understood that only unbound (free) compound is capable of engaging with the target. Clu: in vitro clearance. Clu as defined here is the scaled clearance, in turn calculated from the intrinsic clearance. The intrinsic clearance is the predicted clearance due to hepatic metabolic reactions, determined from incubation of a compound in a hepatocyte preparation. […] Cl in vivo clearance: Pharmacokinetic measurement of the volume of plasma (or any matrix) from which a substance is completely removed per unit time.
# hepatocyte = test: Hepatocyte clearance mouse; format: in vitro ADME; details: mouse hepatocytes
# Text: as §1
# [6] = system: HCT116 human colorectal carcinoma cells; test: In vitro cytotoxicity (Cell Tox), alamarBlue; format: cell-based; details: HCT-116, 96-hour continual compound exposure
# Procedure: In Vitro Cytotoxicity (Cell Tox): Measured in HCT116 human colorectal carcinoma cells using alamarBlue™ as the assay endpoint. Compound cytotoxicity was measured over a period of 96-hour continual compound exposure.
# Mouse plasma stability = format: in vitro ADME; details: read-out: Stability Mouse plasma t1/2
compound,measurement,setting,value
"COc1cccc(-c2cc(C(=O)N[C@@H]3CCN(C#N)C3)on2)c1 [Reference Example A, reference compound]","fold more potent against USP30 than against each of the cathepsins, at a minimum","[1]; cathepsins B, S and V",11 fold
same,Selectivity preference for USP30 v cathepsins,"[1]; range over cathepsins B, S, V",11-126
same,IC50,[2],0.79 to 8.8 µM
same,"fold more potent against USP30 than against each of the seven DUBs, at a minimum","[3]; USP2, USP10, USP16, USP21, USP22, USP25 and USP28",2.7 fold
same,DUB selectivity preference for USP30 v 7 DUBs,[3],2.7-141
same,IC50,[4],0.19 to 9.9 µM
"CC1CC(C(=O)Nc2ncc(-c3ccccc3)s2)CN1C#N (stereo not drawn) [D, reference compound]",fold more potent against USP30 than UCHL1,UCHL1,1.5 fold
"N#CN1CC[C@H](C(=O)Nc2ncc(-c3ccccc3)s2)C1 [C, reference compound]",fold more potent against USP30 than UCHL1,UCHL1,0.8 fold
"N#Cc1ccc(-c2cnc(NC(=O)[C@H]3CCN(C#N)C3)s2)cc1OC(F)(F)F [B, reference compound]",IC50,USP30; read-out: DUB IC50 (μM) USP30,0.172 µM
same,IC50,USP30; read-out: USP30 IC50,0.172 µM
same,DUB selectivity preference for USP30 v UCHL1,UCHL1,4.5
same,IC50,UCHL1,0.77 µM
same,fold more potent against USP30 than UCHL1,UCHL1,4.5 fold
"COC[C@H]1C[C@@H](NC(=O)c2ncc(-c3cccc(OC(F)(F)F)c3)o2)CN1C#N [Example 3, N-((3R,5R)-1-Cyano-5-(methoxymethyl)pyrrolidin-3-yl)-5-(3-(trifluoromethoxy)phenyl)oxazole-2-carboxamide]",fold more potent against USP30 than Reference Example A,USP30; biochemical assay,9 fold
same,fold more potent against USP30 than Reference Example B,USP30; biochemical assay,22 fold
same,fold more potent against USP30 than Reference Example C,USP30; biochemical assay,39 fold
same,fold more potent against USP30 than Reference Example D,USP30; biochemical assay,550 fold
same,IC50,USP30; read-out: USP30 IC50,0.008 µM
same,TOM20-Ub 1.5-fold gain EC1.5x (μM),TOM20 ubiquitylation,0.210 (n = 1) μM
same,DUB selectivity preference for USP30 v UCHL1,UCHL1,37500
same,IC50,UCHL1,> 300 µM
same,fraction unbound,[5],0.036
same,Hepatocyte Cl mouse scaled Clu,hepatocyte,97.4 mL/min/kg
same,EC50,[6],23900 nM
same,half-life,Mouse plasma stability,> 2 h
same,DUB selectivity preference for USP30 v 7 DUBs,[3],>37500
same,IC50,[4],> 300 µM
